This note sets out measurements from publication PMC11513923, “Discovery of ZLC491 as a Potent, Selective, and Orally Bioavailable CDK12/13 PROTAC Degrader” (Journal of Medicinal Chemistry, 2024).

For series [1], the system named is CDK12/13. The experiment in a line: Mechanism study: pretreatment before ZLC491, immunoblotting of CDK12/13 in MDA-MB-231 cells. The settings on record: 2 h pretreatment (1 μM MG132, 0.1 μM MLN4924, 0.1 μM bafilomycin, 5 μM pomalidomide, 8 μM compound 5), then 1 μM ZLC491 10 h. It is filed as cell-based, human. On the procedure:
We further investigated the mechanism of action of ZLC491-mediated CDK12/13 degradation. […] Additionally, pretreatment with CRBN ligand pomalidomide or the warhead compound 5 also reversed the ZLC491-mediated CDK12/13 degradation in MDA-MB-231 cells (Figure 4D,E).
Figure 4 ZLC491 induced CDK12/13 degradation in a CRBN- and proteasome-dependent fashion. Immunoblotting of CDK12 and CDK13 in MDA-MB-231 cells treated with 1 μM ZLC491 for 10 h with or without pretreatment with 1 μM MG132 (A), 0.1 μM MLN4924 (B), 0.1 μM bafilomycin (C), 5 μM pomalidomide (D) and 8 μM compound 5 (E) for 2 h; (F) immunoblotting of CDK12 and CDK13 in MDA-MB-231 cells treated with 1 μM ZLC491N for 10 h. α-Tubulin was used as a loading control.
(§1) Generally, the tested cells were washed by ice-cold PBS buffer (Gibco) and lysed with an SDS lysis buffer (62.5 mM Tris, 2% w/v SDS, 10 glycerol, 50 mM DTT, 0.01% w/v bromophenol blue) on ice, after which the protein lysate samples were collected to 1.5 mL microcentrifuge tubes and treated with ultrasonic for 10 s, following with a 100 °C incubation for 10 min and a 4 °C centrifugation of 12000 rpm for 10 min. An equal amount of protein was loaded to 4–8% Bis-Tris gels and underwent an SDS-PAGE electrophoresis at 55V for 30 min and 95V for 90 min. Proteins on gels were then transferred to a polyvinylidene difluoride (PVDF) membrane (Bio-Rad) with a wet electro transfer system (Bio-Rad). The PVDF membrane was cut into bands and incubated in a blocking reagent (5% defatted milk powder dissolved in TBST) at room temperature for 1–2 h. Incubate membrane and primary antibody (at the appropriate dilution and diluent as recommended in the product webpage) at 4 °C for 12–14 h, followed with three times washes by TBST. The washed membranes were incubated in a secondary antibody solution (HRP-linked antirabbit IgG or antimouse IgG (CST), 1:2000 diluted into TBST) at room temperature for 2 h. Membranes were photographed in Amersham Imager 800 system using StarSignal plus regent (GenStar) or Omni-ECL reagent (EpiZyme). Compounds MG132, MLN4924, Bafilomycin A1 and pomalidomide were purchased from MedChemExpress (MCE) LLC.
In general terms: In western blotting, separated proteins are transferred to a membrane and probed.

For series [2], the target named is T1, CDK13 (Homo sapiens, UniProt Q14004).
T1 construct: Immunoblotting of CDK12 and CDK13 in MDA-MB-231 cells treated with increasing concentrations of ZLC491 for 15 h; endogenous in cells; host or cells: MDA-MB-231
T1 sequence (Q14004 whole entry): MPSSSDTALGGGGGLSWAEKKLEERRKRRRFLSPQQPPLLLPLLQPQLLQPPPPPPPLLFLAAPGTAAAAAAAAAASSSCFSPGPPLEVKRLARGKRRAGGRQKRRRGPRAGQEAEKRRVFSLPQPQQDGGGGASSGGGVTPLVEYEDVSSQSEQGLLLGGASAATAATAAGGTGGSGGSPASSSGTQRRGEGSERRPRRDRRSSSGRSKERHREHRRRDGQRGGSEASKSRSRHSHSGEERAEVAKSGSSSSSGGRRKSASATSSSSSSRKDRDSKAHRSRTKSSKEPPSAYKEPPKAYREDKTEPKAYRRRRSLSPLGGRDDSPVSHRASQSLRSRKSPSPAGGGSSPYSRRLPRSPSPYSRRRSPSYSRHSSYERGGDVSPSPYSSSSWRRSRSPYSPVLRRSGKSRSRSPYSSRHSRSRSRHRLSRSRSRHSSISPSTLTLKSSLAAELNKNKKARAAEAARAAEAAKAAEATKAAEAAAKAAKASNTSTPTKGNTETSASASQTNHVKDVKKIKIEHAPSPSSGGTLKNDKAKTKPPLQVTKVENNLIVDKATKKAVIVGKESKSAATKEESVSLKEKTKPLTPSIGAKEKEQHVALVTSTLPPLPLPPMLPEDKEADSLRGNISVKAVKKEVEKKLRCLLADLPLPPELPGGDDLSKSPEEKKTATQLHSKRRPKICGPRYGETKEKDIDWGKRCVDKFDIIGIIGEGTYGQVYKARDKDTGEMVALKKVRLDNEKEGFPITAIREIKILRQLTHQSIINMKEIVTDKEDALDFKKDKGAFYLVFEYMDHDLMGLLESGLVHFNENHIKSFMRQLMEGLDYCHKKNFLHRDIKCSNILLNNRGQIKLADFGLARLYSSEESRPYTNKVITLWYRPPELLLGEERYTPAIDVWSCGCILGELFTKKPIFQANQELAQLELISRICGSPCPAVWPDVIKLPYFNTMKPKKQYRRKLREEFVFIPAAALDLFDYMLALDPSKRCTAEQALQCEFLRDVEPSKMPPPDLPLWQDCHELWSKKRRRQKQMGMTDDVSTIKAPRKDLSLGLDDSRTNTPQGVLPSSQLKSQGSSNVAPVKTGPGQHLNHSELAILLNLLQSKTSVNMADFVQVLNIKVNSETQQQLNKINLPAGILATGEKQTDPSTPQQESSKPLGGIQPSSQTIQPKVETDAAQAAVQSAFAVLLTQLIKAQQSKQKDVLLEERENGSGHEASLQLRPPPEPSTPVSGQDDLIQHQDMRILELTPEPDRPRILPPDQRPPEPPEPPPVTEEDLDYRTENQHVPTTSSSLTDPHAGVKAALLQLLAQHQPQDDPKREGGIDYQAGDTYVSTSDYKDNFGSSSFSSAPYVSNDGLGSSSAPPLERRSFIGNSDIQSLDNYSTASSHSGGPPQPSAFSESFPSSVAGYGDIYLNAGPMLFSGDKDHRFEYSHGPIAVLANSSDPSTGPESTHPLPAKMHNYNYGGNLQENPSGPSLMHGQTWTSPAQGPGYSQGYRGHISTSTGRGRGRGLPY
T1 sequence (O75909 whole entry partner): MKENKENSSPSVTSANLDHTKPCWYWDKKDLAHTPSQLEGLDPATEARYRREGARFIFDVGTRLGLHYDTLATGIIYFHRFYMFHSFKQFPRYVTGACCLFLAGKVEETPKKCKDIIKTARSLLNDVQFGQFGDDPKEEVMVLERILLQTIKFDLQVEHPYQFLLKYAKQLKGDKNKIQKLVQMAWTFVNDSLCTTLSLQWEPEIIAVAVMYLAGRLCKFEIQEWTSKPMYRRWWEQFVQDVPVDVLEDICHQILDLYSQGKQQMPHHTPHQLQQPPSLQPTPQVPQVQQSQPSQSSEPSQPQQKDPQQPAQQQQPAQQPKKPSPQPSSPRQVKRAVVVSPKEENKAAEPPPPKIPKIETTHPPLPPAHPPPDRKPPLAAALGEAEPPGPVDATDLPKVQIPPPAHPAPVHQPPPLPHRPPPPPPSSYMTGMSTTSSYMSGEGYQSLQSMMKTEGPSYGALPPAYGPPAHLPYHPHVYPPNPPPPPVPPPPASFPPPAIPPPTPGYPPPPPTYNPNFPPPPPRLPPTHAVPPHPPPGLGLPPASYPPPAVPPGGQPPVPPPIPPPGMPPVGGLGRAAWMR
The experiment in a line: CDK13 degradation in MDA-MB-231 cells by immunoblotting.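 For Protein Degradation (%DMSO control, 0.3 μM) CDK13: percent of CDK13 protein degraded relative to DMSO control.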 It is filed as cell-based. The settings on record: 0.3 μM; for Protein Degradation (%DMSO control, 0.3 μM) CDK13: MDA-MB-231 cells, 15 h, immunoblotting, normalized against α-tubulin; for Degradation rates of CDK13 at 0.3 μM: supplementary CSV. The protocol: (§2) The degradation efficiency of the new molecules was assessed by immunoblotting after treatment with the compounds at 0.3 μM in MD-MBA-231 cells for 15 h.
(§3) To further characterize the compound, we determined the half-degradation concentration (DC50) values of ZLC491 in MDA-MB-231 cells. […] We also treated MDA-MB-231 cells with 1 μM ZLC491 at various time points.
(§4) (A) Immunoblotting of CDK12 and CDK13 in MDA-MB-231 cells treated with increasing concentrations of ZLC491 for 15 h (left). Percent remaining CDK12 and CDK13 proteins were plotted for DC50 determination (right). Protein levels were quantified using ImageJ and normalized to corresponding α-tubulin, then plotted using Graphpad Prism 8.0. The data were representative of three independent experiments; (B) immunoblotting of CDK12 and CDK13 proteins in MDA-MB-231 cells treated with ZLC491 for various time points; immunoblotting of CDK12 and CDK13 in HCC38 (C) and MDA-MB-436 (D) cells treated with increasing concentrations of ZLC491 for 15 h. α-Tubulin was used as a loading control. TEXT PRINTED IN THE PICTURE: (A) ZLC491: MDA-MB-231: CDK12 DC50 = 0.032μM; MDA-MB-231: CDK13 DC50 = 0.028μM DOUBTS OF THE COPYIST ABOUT THIS PICTURE: ZLC491, CDK12 DC50: 0.032 read from small print, the digits 3 and 2 are uncertain / ZLC491, CDK13 DC50: 0.028 read from small print, the last digit may be 8, 6 or 3
as §1

The target in series [3] is CDK12 (Homo sapiens, UniProt Q9NYV4). The series is described as follows: CDK12 degradation in MDA-MB-231 cells by immunoblotting. The format is cell-based. Also noted: Immunoblotting of CDK12 and CDK13 in MDA-MB-231 cells treated with increasing concentrations of ZLC491 for 15 h; endogenous in cells; host or cells: MDA-MB-231. To be noted: 0.3 μM; for Protein Degradation (%DMSO control, 0.3 μM) CDK12: MDA-MB-231 cells, 15 h, immunoblotting, normalized against α-tubulin; for Degradation rates of CDK12 at 0.3 μM: supplementary CSV. The protocol:
as §2, §3, §4, §1

The nature of series [4]: Pharmacokinetics in rats. The format is in vivo, rat. The protocol:
We further evaluated the in vivo PK properties of compound ZLC491 and the counterpart 4m (without F substitution) in rats, and the results were summarized in Table 2. […] The PK profiles of F-containing compound ZLC491 were further improved.
The pharmacokinetic investigation was taken by Shanghai Medicilon Inc. (Project Code: 26048-23001-NG). Sprague–Dawley male rats (Specific pathogen Free (SPF), provided by Zhejiang Vital River Laboratory Animal Technology Co. Ltd.) were dosed with ZLC491 solution formulation (5% DMSO, 10% Solutol, 85% normal saline, 2.5 mg/kg for intravenous dose, 10 mg/kg for oral dose) or compound 4m solution formulation (5% DMSO, 10% Solutol, 85% (20%HP-β-CD), 2.5 mg/kg for intravenous dose, 10 mg/kg for oral dose). Blood samples were collected at 0.083, 0.25, 0.5, 1, 2, 4, 8, and 24 h in intravenous administration, 0.25, 0.5, 1, 2, 4, 6, 8, and 24 h in oral administration. The blood samples were collected from sets of three rats at each time point in labeled microcentrifuge tubes containing heparin sodium as an anticoagulant. Plasma samples were separated by centrifugation (2–8 °C, 6800g for 6 min) within 1 h and stored below −80 °C until bioanalysis. All samples were processed for analysis by precipitation using acetonitrile and analyzed with a partially validated LC/MS/MS method. Pharmacokinetic parameters were calculated using the noncompartmental analysis tool of WinNonlin Enterprise software.

Setting [5] is: male, Sprague-Dawley, rat, plasma, oral bioavailability, p.o. 10 mg/kg vs i.v. 2.5 mg/kg.

Molecules are shown by their SMILES. Where a SMILES comes first, the peptide text is derived from it. The star is where a group is joined. Cbz = O=C(OCc1ccccc1)*

Broadly, the bioavailability is the share of a dose that reaches the circulation, judged against a reference dose that is usually intravenous. A low value points to little systemic uptake.

CDK12, sequence (Q9NYV4 whole entry): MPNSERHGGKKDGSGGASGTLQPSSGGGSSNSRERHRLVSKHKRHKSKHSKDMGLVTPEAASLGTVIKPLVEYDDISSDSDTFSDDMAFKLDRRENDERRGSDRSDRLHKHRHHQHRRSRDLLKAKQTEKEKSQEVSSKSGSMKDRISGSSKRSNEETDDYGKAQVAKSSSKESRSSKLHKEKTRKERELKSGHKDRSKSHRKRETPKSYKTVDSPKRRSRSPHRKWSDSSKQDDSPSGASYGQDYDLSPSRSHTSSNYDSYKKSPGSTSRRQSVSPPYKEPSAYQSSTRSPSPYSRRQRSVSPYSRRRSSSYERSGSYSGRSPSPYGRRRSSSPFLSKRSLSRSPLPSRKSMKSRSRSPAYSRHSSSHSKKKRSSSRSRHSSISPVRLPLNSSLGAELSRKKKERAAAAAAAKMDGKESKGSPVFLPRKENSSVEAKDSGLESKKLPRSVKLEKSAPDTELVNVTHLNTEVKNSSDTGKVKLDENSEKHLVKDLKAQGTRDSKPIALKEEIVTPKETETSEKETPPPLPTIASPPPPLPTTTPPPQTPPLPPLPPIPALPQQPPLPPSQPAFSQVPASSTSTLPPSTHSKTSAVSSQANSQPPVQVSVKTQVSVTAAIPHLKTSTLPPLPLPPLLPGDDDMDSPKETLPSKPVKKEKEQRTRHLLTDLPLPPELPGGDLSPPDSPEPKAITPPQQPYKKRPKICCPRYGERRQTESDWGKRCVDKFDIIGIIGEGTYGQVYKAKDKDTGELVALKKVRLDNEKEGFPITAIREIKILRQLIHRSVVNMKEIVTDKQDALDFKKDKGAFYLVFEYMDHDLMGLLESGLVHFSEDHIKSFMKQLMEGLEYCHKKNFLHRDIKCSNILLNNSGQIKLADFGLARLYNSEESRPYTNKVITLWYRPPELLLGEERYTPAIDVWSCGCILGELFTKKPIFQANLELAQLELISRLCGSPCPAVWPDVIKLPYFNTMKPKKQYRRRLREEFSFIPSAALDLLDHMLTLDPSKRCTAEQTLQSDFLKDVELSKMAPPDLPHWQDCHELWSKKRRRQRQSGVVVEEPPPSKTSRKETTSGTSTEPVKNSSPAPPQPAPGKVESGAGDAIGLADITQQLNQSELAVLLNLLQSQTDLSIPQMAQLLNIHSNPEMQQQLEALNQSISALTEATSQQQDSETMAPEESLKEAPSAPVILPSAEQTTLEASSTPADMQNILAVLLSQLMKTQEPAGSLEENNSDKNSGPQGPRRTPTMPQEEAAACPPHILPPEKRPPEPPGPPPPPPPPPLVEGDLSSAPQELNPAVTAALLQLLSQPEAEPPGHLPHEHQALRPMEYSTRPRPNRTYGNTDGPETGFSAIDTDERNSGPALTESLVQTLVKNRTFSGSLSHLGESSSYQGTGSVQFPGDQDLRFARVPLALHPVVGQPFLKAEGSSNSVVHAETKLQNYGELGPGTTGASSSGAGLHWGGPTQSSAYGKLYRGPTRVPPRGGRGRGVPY
CDK12, sequence (O75909 whole entry partner): as the sequence (O75909 whole entry partner) above

For the molecule `CC(C)C[C@@H](C=O)NC(=O)[C@H](CC(C)C)NC(=O)[C@H](CC(C)C)NC(=O)OCc1ccccc1` [MG132] (Cbz-Leu-Leu-Leu-aldehyde), the “effect of pretreatment on ZLC491-induced CDK12/13 degradation” value (from here on “effect of pretreatment”) in series [1] is on record as “significantly blocked”.

As for `NS(=O)(=O)OC[C@@H]1C[C@@H](n2ccc3c(N[C@H]4CCc5ccccc54)ncnc32)C[C@@H]1O` [MLN4924], the “effect of pretreatment” value in series [1] is “significantly blocked”.

In the case of `N#Cc1ccc(N[C@H]2CC[C@H](N(C(=O)NCc3ccccc3)c3ccc(N4CCNCC4)cc3)CC2)nc1` [compound 5, 3-Benzyl-1-((1r,4r)-4-((5-cyanopyridin-2-yl)amino)cyclohexyl)-1-(4-(piperazin-1-yl)phenyl)urea], the “effect of pretreatment” value in series [1] is “reversed”.

Regarding `Nc1cccc2c1C(=O)N(C1CCC(=O)NC1=O)C2=O` (stereo not drawn) [pomalidomide], in series [1], the “effect of pretreatment” value is listed as “reversed”.

Take `N#Cc1ccc(N[C@H]2CC[C@H](N(C(=O)NCc3ccccc3)c3ccc(N4CCN(C5CCN(c6ccc7c(c6)C(=O)N(C6CCC(=O)NC6=O)C7=O)CC5)CC4)cc3)CC2)nc1` (stereo partly drawn) [4m, 3-Benzyl-1-((1r,4r)-4-((5-cyanopyridin-2-yl)amino)cyclohexyl)-1-(4-(4-(1-(2-(2,6-dioxopiperidin-3-yl)-1,3-dioxoisoindolin-5-yl)piperidin-4-yl)piperazin-1-yl)phenyl)urea]: in series [2], the “Protein Degradation (%DMSO control, 0.3 μM) CDK13” value was found to be 85% and the Degradation rates of CDK13 at 0.3 μM was 85%. Further, in series [3], the “Protein Degradation (%DMSO control, 0.3 μM) CDK12” value is given as 70% and the Degradation rates of CDK12 at 0.3 μM is 70%. Moreover, the “CL” value in series [4] (i.v. 2.5 mg/kg) was determined as 9.85 mL/min/kg. In series [4] (setting [5]), this molecule came in with a bioavailability of 16% and a bioavailability at 24 h of 16.5%.

`N#Cc1ccc(N[C@H]2CC[C@H](N(C(=O)NCc3ccccc3)c3ccc(N4CCN(CC5CCN(c6ccc7c(c6)C(=O)N(C6CCC(=O)NC6=O)C7=O)CC5)CC4)cc3)CC2)nc1` (stereo partly drawn) [4g, 3-Benzyl-1-((1r,4r)-4-((5-cyanopyridin-2-yl)amino)cyclohexyl)-1-(4-(4-((1-(2-(2,6-dioxopiperidin-3-yl)-1,3-dioxoisoindolin-5-yl)piperidin-4-yl)methyl)piperazin-1-yl)phenyl)urea]: in series [2], the “Protein Degradation (%DMSO control, 0.3 μM) CDK13” value turned out to be 84% and the Degradation rates of CDK13 at 0.3 μM turned out to be 84%. In series [3], the “Protein Degradation (%DMSO control, 0.3 μM) CDK12” value is given as 74% and the Degradation rates of CDK12 at 0.3 μM was 74%.

Regarding `N#Cc1ccc(N[C@H]2CC[C@H](N(C(=O)NCc3ccccc3)c3ccc(N4CC(CN5CCN(c6ccc7c(c6)C(=O)N(C6CCC(=O)NC6=O)C7=O)CC5)C4)cc3)CC2)nc1` (stereo partly drawn) [4h, 3-Benzyl-1-((1r,4r)-4-((5-cyanopyridin-2-yl)amino)cyclohexyl)-1-(4-(3-((4-(2-(2,6-dioxopiperidin-3-yl)-1,3-dioxoisoindolin-5-yl)piperazin-1-yl)methyl)azetidin-1-yl)phenyl)urea], in series [2], the “Protein Degradation (%DMSO control, 0.3 μM) CDK13” value amounted to 61% and the Degradation rates of CDK13 at 0.3 μM came to 61%. Besides, in series [3], the “Protein Degradation (%DMSO control, 0.3 μM) CDK12” value came to 37% and the Degradation rates of CDK12 at 0.3 μM is 37%.

As to `N#Cc1ccc(N[C@H]2CC[C@H](N(C(=O)NCc3ccccc3)c3ccc(N4CCN(C5CN(c6ccc7c(c6)C(=O)N(C6CCC(=O)NC6=O)C7=O)C5)CC4)cc3)CC2)nc1` (stereo partly drawn) [4k, 3-Benzyl-1-((1r,4r)-4-((5-cyanopyridin-2-yl)amino)cyclohexyl)-1-(4-(4-(1-(2-(2,6-dioxopiperidin-3-yl)-1,3-dioxoisoindolin-5-yl)azetidin-3-yl)piperazin-1-yl)phenyl)urea], in series [2], the “Protein Degradation (%DMSO control, 0.3 μM) CDK13” value is on record as 76% and the Degradation rates of CDK13 at 0.3 μM turned out to be 76%. Also, in series [3], the “Protein Degradation (%DMSO control, 0.3 μM) CDK12” value is given as 62% and the Degradation rates of CDK12 at 0.3 μM was determined as 62%.

Regarding `N#Cc1ccc(N[C@H]2CC[C@H](N(C(=O)NCc3ccccc3)c3ccc(N4CCN(C(=O)C5CN(c6ccc7c(c6)C(=O)N(C6CCC(=O)NC6=O)C7=O)C5)CC4)cc3)CC2)nc1` (stereo partly drawn) [4a, 3-Benzyl-1-((1r,4r)-4-((5-cyanopyridin-2-yl)amino)cyclohexyl)-1-(4-(4-(1-(2-(2,6-dioxopiperidin-3-yl)-1,3-dioxoisoindolin-5-yl)azetidine-3-carbonyl)piperazin-1-yl)phenyl)urea], in series [2], the “Protein Degradation (%DMSO control, 0.3 μM) CDK13” value is reported as 38% and the Degradation rates of CDK13 at 0.3 μM came out at 38%. In series [3], the “Protein Degradation (%DMSO control, 0.3 μM) CDK12” value came out at 35% and the Degradation rates of CDK12 at 0.3 μM worked out at 35%.
